Our source for the DC50 values is patent US20240293559A1, “SHP2 inhibitor, pharmaceutical composition containing the same and application thereof” (BEIJING TIDE PHARMACEUTICAL CO., LTD., priority 2021, published 2024).

The test concerns the target T1, SHP2 (Homo sapiens, UniProt Q06124).
T1 construct: endogenous in cells; host or cells: MV 411
T1 sequence (Q06124 1-593): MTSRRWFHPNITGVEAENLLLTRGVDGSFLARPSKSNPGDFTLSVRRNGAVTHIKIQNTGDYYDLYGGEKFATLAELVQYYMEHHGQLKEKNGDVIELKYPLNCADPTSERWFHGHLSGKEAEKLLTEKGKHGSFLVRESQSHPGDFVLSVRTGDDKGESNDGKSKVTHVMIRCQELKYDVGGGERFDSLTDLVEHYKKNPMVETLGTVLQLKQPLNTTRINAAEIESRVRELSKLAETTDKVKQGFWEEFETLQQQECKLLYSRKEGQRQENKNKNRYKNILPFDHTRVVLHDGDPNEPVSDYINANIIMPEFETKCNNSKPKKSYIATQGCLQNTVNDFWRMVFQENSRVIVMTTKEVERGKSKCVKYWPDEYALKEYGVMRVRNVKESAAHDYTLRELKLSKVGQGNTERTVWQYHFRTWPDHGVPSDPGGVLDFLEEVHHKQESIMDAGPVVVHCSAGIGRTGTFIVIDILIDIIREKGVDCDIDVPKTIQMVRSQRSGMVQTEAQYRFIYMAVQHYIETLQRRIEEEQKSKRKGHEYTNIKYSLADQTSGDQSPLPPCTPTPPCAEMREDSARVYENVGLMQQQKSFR
Kind of test: SHP2 degradation in MV 411 cells by Western blot (median degradation concentration). The settings on record: 24 hours with compound, SHP-2 antibody Western blot, concentration of the median degradation from exposure gray scale. In kind it is cell-based. An excerpt: Reagent: complete DMEM medium, Gibco products. Fetal bovine serum, manufactured byThermoFisher. Trypsin, manufactured byThermoFisher. The SHP-2 antibody is produced by CST. Cell line, MV 411, the blast cells of patients with bi-phenotypic B-myelomonocytic leukemia, was established by Rovera. Measuring method: took the cells growing in the logarithmic phase, collected and suspended the cells in DMEM containing 10% fetal calf serum, gently blowed and beated the cells into single cell suspension by using a pipette, and counted the living cells under a microscope. […] Then cultured for 24 hours. All cells were collected and washed with PBS, lysed with RIPA lysate and collected into a 1.7 ml tube. […] metal bath for 5 minutes to fully denature the protein. 100V constant voltage electrophoresis after Western condensation and loading, stopped when bromophenol blue band reached the end point. The cellulose acetate membrane is transferred by a wet method, 45 minutes at a constant flow of 300-500 mA, 5% BSA is used for blocking for 1-2 hours at room temperature. Primary antibody of 1:500-1:8000 were used for incubation at 25° C. for 40 minutes and then washed three times. Secondary antibody was used for incubation for 15-40 min at room temperature. The proteins were detected using ultrasensitive ECL luminophores such as […], using an X-Ray film automatic developing machine. The concentration of the median degradation was calculated by exposure gray scale.
A general note: Immunoblotting shows a protein as a band on a membrane.
As for `CCOc1cc2oc(-c3ccc(NCCOCCOCCOCCOc4cccc5c4C(=O)N(C4CCC(=O)NC4=O)C5=O)cc3Cl)cc(=O)c2cc1-c1ccc(OC)cc1F` (stereo not drawn) [Compound 15], the DC50 (as a rule, the concentration giving 50% degradation) was 250 nM. The figure for `CCOc1cc2oc(-c3ccc(OCCOCCOCCOCCOc4cccc5c4C(=O)N(C4CCC(=O)NC4=O)C5=O)cc3Cl)cc(=O)c2cc1-c1cc(C(N)=O)cc(-c2ncc[nH]2)c1` (stereo not drawn) [Compound 59] is > 750 nM; for `CCOc1cc2oc(-c3ccc(NCCOCCOCCOCCOc4cccc5c4C(=O)N(C4CCC(=O)NC4=O)C5=O)cc3Cl)cc(=O)c2cc1-c1cccc(C=O)c1` (stereo not drawn) [Compound 18] it is > 1000 nM.

As for `CCOc1cc2oc(-c3ccc(OCCOCCOCCOCCOc4cccc5c4C(=O)N(C4CCC(=O)NC4=O)C5=O)cc3Cl)cc(=O)c2cc1-c1cc(C(N)=O)cc(N(C)S(C)(=O)=O)c1` (stereo not drawn) [Compound 67], the DC50 was > 250 nM. The figure for `CCOc1cc2oc(-c3ccc(OCCOCCOCCOCCOc4cccc5c4C(=O)N(C4CCC(=O)NC4=O)C5=O)cc3Cl)cc(=O)c2cc1-c1ccccc1C(N)=O` (stereo not drawn) [Compound 45] is > 250 nM; for `CCOc1cc2oc(-c3ccc(OCCOCCOCCOCCOc4cccc5c4C(=O)N(C4CCC(=O)NC4=O)C5=O)cc3Cl)cc(=O)c2cc1-c1cc(C(N)=O)cc(S(C)(=O)=O)c1` (stereo not drawn) [Compound 79] it is 500 nM.

For the molecule `CCOC(=O)c1cncc(-c2cc3c(=O)cc(-c4ccc(OCCOCCOCCOCCOc5cccc6c5C(=O)N(C5CCC(=O)NC5=O)C6=O)cc4Cl)oc3cc2OCC)c1` (stereo not drawn) [Compound 41], the DC50 stood at 1000 nM. As for `CCOc1cc2oc(-c3ccc(OCCOCCOCCOCCOc4cccc5c4C(=O)N(C4CCC(=O)NC4=O)C5=O)cc3Cl)cc(=O)c2cc1-c1cc(C(N)=O)cc(N(C)S(=O)(=O)c2ccccc2)c1` (stereo not drawn) [Compound 69], the figure is > 250 nM. The figure for `CCOc1cc2oc(-c3ccc(NCCOCCOCCOCCOc4cccc5c4C(=O)N(C4CCC(=O)NC4=O)C5=O)cc3Cl)cc(=O)c2cc1-c1cccc(CO)c1` (stereo not drawn) [Compound 11] is 50 nM; for `CCOc1cc2oc(-c3ccc(NCCOCCOCCOCCOc4cccc5c4C(=O)N(C4CCC(=O)NC4=O)C5=O)cc3Cl)cc(=O)c2cc1CN1CCC=C(n2c(=O)[nH]c3cc(NS(=O)(=O)C4CC4)ccc32)C1` (stereo not drawn) [Compound 50] it is > 750 nM; for `CCOc1cc2oc(-c3ccc(NCCOCCOCCOCCOc4ccc5c(c4)C(=O)N(C4CCC(=O)NC4=O)C5=O)cc3Cl)cc(=O)c2cc1-c1cccc(C(C)=O)c1` (stereo not drawn) [Compound 86] it is 50 nM.

Regarding `CCOc1cc2oc(-c3ccc(OCCOCCOCCOCCOc4cccc5c4C(=O)N(C4CCC(=O)NC4=O)C5=O)cc3Cl)cc(=O)c2cc1-c1ccc2c(c1)COC2=O` (stereo not drawn) [Compound 31], the DC50 was 300 nM. Regarding `CCOc1cc2oc(-c3ccc(OCCOCCOCCOCCOc4cccc5c4C(=O)N(C4CCC(=O)NC4=O)C5=O)cc3Cl)cc(=O)c2cc1-c1cccc(C(=O)OC)c1F` (stereo not drawn) [Compound 27], the DC50 was determined as 2 nM. As for `CCOc1cc2oc(-c3ccc(OCCOCCOCCOCCOc4cccc5c4C(=O)N(C4CCC(=O)NC4=O)C5=O)cc3Cl)cc(=O)c2cc1-c1cc(C(N)=O)cc(C(=O)Nc2ccccc2)c1` (stereo not drawn) [Compound 78], the figure is > 250 nM; as for `CCOc1cc2oc(-c3ccc(NCCOCCOCCOCCOc4ccc5c(c4)C(=O)N(C4CCC(=O)NC4=O)C5=O)cc3Cl)cc(=O)c2cc1-c1cccc(C(C)=O)c1` (stereo not drawn) [Compound 36], 20 nM; as for `CCOc1cc2oc(-c3ccc(OCCOCCOCCOCCOc4cccc5c4C(=O)N(C4CCC(=O)NC4=O)C5=O)cc3Cl)cc(=O)c2cc1-c1cc(C(N)=O)cc(-c2ccccn2)c1` (stereo not drawn) [Compound 56], > 1000 nM. The figure for `CCOc1cc2oc(-c3ccc(OCCOCCOCCOCCOc4cccc5c4C(=O)N(C4CCC(=O)NC4=O)C5=O)cc3Cl)cc(=O)c2cc1-c1cc(N)cc(C(N)=O)c1` (stereo not drawn) [Compound 32] is 850 nM; for `CCOc1cc2oc(-c3ccc(OCCOCCOCCOCCOc4cccc5c4C(=O)N(C4CCC(=O)NC4=O)C5=O)cc3Cl)cc(=O)c2cc1-c1cc(C(N)=O)cc(S(=O)(=O)NC)c1` (stereo not drawn) [Compound 81] it is > 500 nM; for `CCOc1cc2oc(-c3ccc(OCCOCCOCCOCCOc4cccc5c4C(=O)N(C4CCC(=O)NC4=O)C5=O)cc3Cl)cc(=O)c2cc1-c1ccc(S(=O)(=O)N2CCOCC2)cc1` (stereo not drawn) [Compound 34] it is 42 nM. As for `CCOc1cc2oc(-c3ccc(OCCOCCOCCOCCOc4cccc5c4C(=O)N(C4CCC(=O)NC4=O)C5=O)cc3Cl)cc(=O)c2cc1-c1ccc(S(=O)(=O)N2CCOCC2)cc1F` (stereo not drawn) [Compound 33], the figure is 3500 nM; as for `CCOc1cc2oc(-c3ccc(OCCOCCOCCOCCOc4cccc5c4C(=O)N(C4CCC(=O)NC4=O)C5=O)cc3Cl)cc(=O)c2cc1CCC(=O)Nc1ccccc1` (stereo not drawn) [Compound 72], > 250 nM. Regarding `CCOc1cc2oc(-c3ccc(NCCOCCOCCOCCOc4cccc5c4C(=O)N(C4CCC(=O)N(COC(=O)CC6CCCCC6)C4=O)C5=O)cc3Cl)cc(=O)c2cc1-c1cccc(C(C)=O)c1` (stereo not drawn) [Compound 89], the DC50 amounted to 75 nM. On to `CCOc1cc2oc(-c3ccc(OCCOCCOCCOCCOc4cccc5c4C(=O)N(C4CCC(=O)NC4=O)C5=O)cc3Cl)cc(=O)c2cc1-c1cc(NC)cc(C(N)=O)c1` (stereo not drawn) [Compound 62], for which the DC50 was > 250 nM. The figure for `CCOc1cc2oc(-c3ccc(OCCOCCOCCOCCOc4cccc5c4C(=O)N(C4CCC(=O)NC4=O)C5=O)cc3Cl)cc(=O)c2cc1-c1cc(NC(=O)Nc2ccccc2)cc(C(N)=O)c1` (stereo not drawn) [Compound 71] is > 250 nM.
